Measured values reported in PubChem BioAssay AID449764 (Southern Research Specialized Biocontainment Screening …, 2010).

Test system: Mycobacterium tuberculosis H37Rv growth inhibition, no glycerol
Assay: Mycobacterium tuberculosis H37Rv growth inhibition, no glycerol, confirmatory dose response (AID 449764);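 note: growth read after 7 days of incubation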
Settings: for IC90: measured here: IC90 growth inhibition

SMILES | IC50 [µM] | IC90 [µM]
O=C(CCl)N1CCCC1c1ccc2c(c1)OCCO2 (configuration not stated) | 8.76 | 14.1
C=C1c2c(Cl)ccc(O)c2C(O)=C2C(=O)[C@]3(O)C(O)=C(C(N)=O)C(=O)[C@@H](N(C)C)[C@@H]3[C@@H](O)C12 (some centres not stated) | 4.52 | 7.01
C/C(=C1/C(=O)N(c2ccc([N+](=O)[O-])cc2)N=C1c1ccccc1)N(C)C | 28.2 | 37
CNC(=S)/N=C/NOCc1c(Cl)cccc1Cl | 2.96 | 3.35
Cc1onc(-c2ccccc2Cl)c1C(=O)Oc1cccc2cccnc12 | 3.38 | 3.98
O=C(CSc1nc2ccccc2nc1N1CCOCC1)N1CCN(c2ccccc2)CC1 | 11.8 | 14
O=C(CN1CCN(C(=O)COc2cccc(F)c2)CC1)Nc1ccc(Cl)c(C(F)(F)F)c1 | 50.4 | 57.4
CCOc1ccc(/C=N/OCC(=O)Nc2cc(C)on2)cc1 | 90 | > 100
CC(C)(C)C(=O)N1CCN(c2ccc(NC(=O)c3ccc([N+](=O)[O-])o3)cc2)CC1 | < 0.2 | 1.93
CN1/C(=C/C(=O)c2nc(S(C)(=O)=O)ncc2Cl)C(C)(C)c2ccccc21 | 6.77 | 13.1
O=C(CN1CCC(n2nnc3cc(C(F)(F)F)ccc32)CC1)NCc1cccs1 | 37.2 | 47.9
COC(=O)c1cc(/C=C/c2ccccc2)on1 | 29.3 | > 100
Cc1cc(C)n(-c2ccc(C(=O)Oc3ccc4c(c3)OCO4)cc2)n1 | 11.7 | > 100
Cc1nc(-c2ccc(Cl)cc2)sc1C1(C)CC(c2ccc(C#N)cc2)=NO1 (configuration not stated) | 43.6 | > 100
O=C(CSc1nnnn1-c1ccc2c(c1)OCCO2)OC1CCCCC1 | 22.8 | 25.7
CCCCC(CC)CN=C(N)NC(N)=NCCCCCCN=C(N)NC(N)=NCC(CC)CCCC (configuration not stated) | 5.37 | 5.97

SMILES | IC50 [µM] | IC90 [µM]
Cc1ccc(/C=C2\C(=O)Nc3ccccc32)o1 | 4.9 | 6.56
COc1ccc(-c2c(C#Cc3ccsc3)c3ccccc3n2C)cc1 | 33.8 | 49.6
C/C(CC(=O)Nc1ccc(Cl)cc1C(F)(F)F)=N\NC(N)=S | 15.9 | 20.1
COc1ccc(C)cc1Nc1n[n+](-c2ccccc2)c(-c2c(Cl)cccc2Cl)s1 | 18.4 | 24.9
Cc1ccc(C(c2nnnn2Cc2cccs2)N2CCN(Cc3ccc4c(c3)OCO4)CC2)cc1 (configuration not stated) | 24.3 | 38
CCCCNc1c(-c2ccc(SC3CCCCC3)c(OC)c2)nc2ccc(C)cn12 | 11.8 | 13.5
CC[n+]1c(/C=C/N(C)c2ccccc2)n(-c2ccccc2)c2ccc(-c3nc4ccccc4s3)cc21 | 1.13 | 1.36
COCCNC(=S)N/N=C(\C)c1ccc(OC)cc1 | 43.6 | 49
CCCCCCCCn1c2c(c(=N)c3c1CCC3)CCCC2 | 22.6 | 25.8
Nc1ccc(S(=O)(=O)Nc2cnc3ccccc3n2)cc1 | 23.7 | 27.3
CNC(C)C#Cc1ccc2oc3cc(C)c(C)cc3c(=O)c2c1 (configuration not stated) | 16.4 | 35.5
Cc1cccc(N(C(=O)c2nsc(Cl)c2Cl)C(C(=O)NC2CCCC2)c2ccc(O)cc2)c1C (configuration not stated) | 30.8 | 41
C(=N\Nc1nc(-c2ccccc2)cs1)/c1ccncc1 | 62.7 | 79.9
S=C(NCCc1ccccc1)NN=C1CCCCCC1 | 45.8 | 50.1
O=C1C(=O)c2ccccc2-c2ccccc21 | 7.83 | 10.6
